Reference: patent publication EP2767273A1, “Death-associated protein kinases, inhibitors and activators thereof for use in pharmaceutical compositions and in predictive medicine” (UNIVERSITÄTSKLINIKUM ERLANGEN, priority 2013, dated 2014)

Columns and labels:
IL-6 [1] = test: IL-6 secretion in HCEC cell culture supernatants (ELISA); assay type: cell-based, human; details: HCEC cells
Description: (§1) HCEC cells were kindly provided by Professor Steinberg Pablo (Institute for Food Toxicology and Analytical Chemistry, University of Veterinary Medicine Hannover, Germany) and maintained as previously described.^31 After 24 hours of seeding, cells were either stimulated with 0.66 ng/ml TNF (ImmunoTools) for various time points. For inhibitor experiments cells were pre-incubated for one to two hours with the corresponding inhibitors.
IL-6 and IL-8 secretion was analyzed by ELISA according to the manufacturer's instructions (BD Biosciences; Heidelberg, Germany). […] After blocking (300 µl 3% BSA in PBS, 2 hours, RT) and washing (0.1% Tween in PBS, (PBS-T), 100 µl of undiluted or diluted supernatant was added and incubated (2 hours, RT or overnight 4°C). Thereafter, wells were washed and incubated (1.5 hours, RT) with detection antibody (1:250 diluted in 1% BSA in PBS-T) + enzyme reagent (Streptavidin-horseradish peroxidase conjugate; 1:250 diluted in detection antibody). After washing, TMB (1:1) substrate was added to each well and incubated in a dark for 20-30 minutes. Reaction was stopped with stop solution (100 µl 1 M H2SO4) and absorption was measured using spectrophotometer (Victor X3, Perkin-elmer) at a wavelength of 450 nm with a wavelength correction at 570 nm.

STAT3 = STAT3 Y705 phosphorylation in HCEC cells (Western blotting); assay type: cell-based, human
Description: as §1
(§2) Protein concentration was measured in duplicates using Bio-rad Dc Protein Assay (BioRad Laboratories, Hercules, CA). Equal amounts of protein were separated by 10% or 12% SDS-PAGE using Laemmli buffer system. Proteins were transferred electrophoretically to nitrocellulose membrane (Millipore Corporation, Billerica, MA, USA) and detected as recently described^33 using following antibodies, anti-DAPK (BD Transduction Laboratories, Lexington NY), anti-pDAPK^S308 (Sigma), anti-STAT3, anti-pSTAT3^γ705, anti-caspase3 (Cell Signaling Technology Inc.), anti-ß-actin (Sigma), or anti-GAPDH (Abnova GmbH, Germany).

DAPK [2] = test: DAPK mRNA expression in HCEC cells (real time RT-PCR); assay type: cell-based, human; details: for DAPK mRNA enhanced: 7 µM Stattic + TNF, relative to TNF treatment
Description: as §1
Expression of IL-6, IL-8, and DAPK mRNA were analyzed by real time RT-PCR. RNA isolation (mRNeasy RNA isolation kit) and cDNA synthesis (Quantitect reverse transcriptase kit) were performed according to the manufacturer's instructions (Qiagen, Hilden, Germany). 1 µl of cDNA was amplified in a thermal cycler (Biorad CFX-96) with corresponding primers in a total volume of 25 µl using Quantifast SYBR green kit (Qiagen) under the following conditions: 95°C for 5 minutes followed by 26-40 cycles of 95°C for 10 s and 60°C for 30 s. The following primers were used, forward and reverse respectively: DAPK, 5'-[…]-3' and 5'-GATCCCGAGTGGCCAAA-3'; IL-6, 5'-[…]-3' and 5'-[…]-3'; IL-8, 5'-[…]-3' and 5'-[…]-3'; ß2microglobulin (house-keeping gene), 5'-[…]-3' and 5'-[…]-3'; murine DAPK, 5'-[…]-3' and 5'-[…]-3'; murine GAPDH (house-keeping gene), 5'-[…] -3' and 5'-[…] -3'. The results were expressed as fold induction compared to unstimulated cells after normalising to house-keeping gene. All primers were purchased from metabion (metabion international AG, Martinsried, Germany).

IL-6 [3] = test: IL-6 mRNA expression in HCEC cells (real time RT-PCR); assay type: cell-based, human; details: AG490
Description: as §1
Expression of IL-6, IL-8, and DAPK mRNA were analyzed by real time RT-PCR. RNA isolation (mRNeasy RNA isolation kit) and cDNA synthesis (Quantitect reverse transcriptase kit) were performed according to the manufacturer's instructions (Qiagen, Hilden, Germany). 1 µl of cDNA was amplified in a thermal cycler (Biorad CFX-96) with corresponding primers in a total volume of 25 µl using Quantifast SYBR green kit (Qiagen) under the following conditions: 95°C for 5 minutes followed by 26-40 cycles of 95°C for 10 s and 60°C for 30 s. […] The results were expressed as fold induction compared to unstimulated cells after normalising to house-keeping gene. […]

DAPK [4] = test: DAPK protein expression/activation in HCEC cells (Western blotting); assay type: cell-based, human
Description: as §1, §2
Silencing of DAPK expression in HCEC cells was performed by the siRNA technique according to the manufacturer's instructions (Dharmacon, Chicago, IL, USA). […] At the end of the incubation period supernatants and cells were harvested and stored at -80°C until analyzed further. The knockdown efficiency was determined by Western blotting.

AOM-DSS tumors = test: AOM+DSS mouse model of colitis-associated tumors, treatment with DAPK-inhibitor; assay type: in vivo, mice
Description: as §2
Experimental colitis-associated tumorigenesis was performed as previously described.^43 In brief, 10mg/kg Azoxymethane (AOM; Sigma) was injected intraperitoneally into 6-8 week old C57BL/6J mice, followed by 3 cycles of DSS in drinking water. Each DSS-cycle was composed of DSS (2.5 % (w/v); MP Biomedicals) in drinking water for 7 days, followed by a recovery phase with regular drinking water for 14 days. All tumors were harvested at day 65-70.

[5] = AOM-DSS tumors, treated mice vs untreated control mice

Structure (SMILES): N#C/C(=C\c1ccc(O)c(O)c1)C(=O)NCc1ccccc1 [AG490, Tyrphostin AG 490]
- TNF-induced IL-6 secretion down-regulated (IL-6 [1]; AG490): 50%
- pSTAT3Y705 levels decreased (STAT3; 20 µM AG490 prior to TNF treatment): 35%
- DAPK mRNA expression (DAPK [2]; 20 µM AG490 pre-treatment + TNF, after 72 hours): 3.3 fold
- TNF-induced IL-6 mRNA expression down-regulated (IL-6 [3]): 50%
- TNF-induced DAPK protein expression (DAPK [4]; 20 µM AG490 + TNF): elevated

Structure (SMILES): O=C1OC(c2ccccc2)=N/C1=C\c1cccnc1 [DAPK inhibitor, (4Z)-2-phenyl-4-(pyridine-3-ylmethylidene)-4,5-dihydro-1,3-oxazol-5-one]
- TNF-induced IL-6 secretion (IL-6 [1]; 0.66 ng/ml TNF, 10 µM DAPK inhibitor, after 6 and 24 hours): significantly increased
- STAT3Y705 phosphorylation (STAT3; 0.66 ng/ml TNF, 10 µM DAPK inhibitor, after 24, 48, and 72 hours): enhanced
- tumors in the gut (endoscopy) (AOM-DSS tumors; AOM-DSS mice, with vs without DAPK-inhibitor): less and smaller tumors
- tumor growth, atypia and architecture (immunohistochemical evaluation) (AOM-DSS tumors; AOM-DSS mice, untreated controls: non-invasive growth, low grade atypia, simple and tubular architecture): invasively growing, showed high grade atypia, and a complex, cribiform architecture
- NFκB inhibitor plκß in tumors (Western Blotting) (AOM-DSS tumors; [5]): up-regulated
- tumor suppressor p53 in tumors (Western Blotting) (AOM-DSS tumors; [5]): down-regulated

Structure (SMILES): O=[N+]([O-])c1ccc2c(c1)S(=O)(=O)C=C2 [Stattic]
- TNF-induced STAT3Y705 phosphorylation down-regulated (STAT3; 7 µM Stattic pre-treatment): up to 45%
- DAPK mRNA enhanced (DAPK [2]; after 48 hours): 1-5 fold
- DAPK mRNA enhanced (DAPK [2]; after 72 hours): 2.8 fold
- DAPK protein (DAPK [4]; 7 µM Stattic + TNF): enhanced
